We go through 4 compounds from patent US20190070165A1, “N-HYDROXYISOQUINOLINEDIONE INHIBITORS OF HBV REPLICATION” (Saint Louis University, priority 2016, published 2019).

The target of series [1] is T1, HBV RNaseH (Hepatitis B virus genotype D subtype ayw, UniProt P03156). Put plainly: Molecular beacon RNaseH assay. The note with it: for Inhibition of HBV RNaseH, Molecular Beacon cleavage assay: Table 3, 0 to 500 μM; for inhibition in the molecular beacon assay: 2.1 μg purified HBV RNaseH.
Description: In this assay, a hairpin DNA oligonucleotide labeled with fluorescein on one end and a quencher on the other is held in a linear conformation by annealing to a complementary RNA; cleavage of the RNA causes the DNA to fold into a hairpin, suppressing fluorescence (FIG. 8A).
The substrate is a hairpin DNA oligonucleotide with a 5′ fluorescein reporter and a 3′ black hole quencher annealed to a complementary RNA oligonucleotide. The reaction was initiated by adding 5 mM Mg^++, and fluorescence was monitored at 37° C. with a Synergy 4 96-well plate reader. Inhibition was qualitatively determined as a dose-dependent reduction in the rate of substrate degradation.
A short description of series [2]: MTS cytotoxicity assay (CellTiter 96). The note with it: human. On the procedure:
(§1) HepDES19 cells were seeded at 1×10^4 cells per well in a 96 well plate in the absence of tetracycline. The test compounds were applied in triplicate to the cells 48 hours later and the cells were incubated for 72 hours. Cell viability was measured using the CellTiter 96 Aqueous Non-Radioactive Cell Proliferation Assay (Promega). [3-(4,5-dimethylthiazol-2-yl)-5-(3-carboxymethoxyphenyl)-2-(4-sulfophenyl)-2H-tetrazolium, inner salt] (MTS) and phenazine methosulfate (PMS) solution at 2 mg/mL MTS and 0.043 mg/mL PMS were added to the medium, the cells were incubated for two hours at 37° C., and absorbance was measured at 490 nm. […] Neutral red was added to the media at a final concentration of 40 μg/mL. Cells were washed with PBS and incubated with neutral red medium for two hours at 37° C. The neutral red medium was removed and the cells were washed with PBS. […] Lactate dehydrogenase (LDH) release was measured using the LDH-cytotoxicity colorimetric assay kit (BioVision). Cells were lysed with 1% Triton-X to provide the high control and DMSO vehicle treatment was the low control. Supernatants were collected and transferred to a fresh 96 well plate, and LDH reaction mixture containing the catalyst and dye solution was added. The reaction was incubated for 15-20 minutes at room temperature in a dark box and absorbance was measured at 490 nm. Percent cytotoxicity was calculated as [(test sample−low control)/([…])]×100.
(In general: Tetrazolium dyes change colour on reduction, which living cells bring about.)

In the next series the test system is HepDES19 cells. Put plainly: MTS cytotoxicity assay (CellTiter 96). As to conditions: CC50 by MTS assay over EC50. The protocol: as §1
Another series is described as follows: MTT cytotoxicity assay. As to conditions: human; Table 2, HepDES19 cells. In kind it is cell-based. The protocol:
MTT cytotoxicity assays. 1.0×10^4 HepDES19 cells per well were seeded in 96-well plates and incubated in DMEM with 10% FBS plus 1% P/S, 1% non-essential amino acids, and 1% glutamine. Compounds were diluted in medium to the indicated concentrations plus 1% DMSO and added to cells 24 hours after plating, with each concentration tested in triplicate. Medium containing the compound was refreshed daily for the next two days. Thiazolyl blue tetrazolium bromide (MTT, Sigma-Aldrich) was added to 0.25 mg/mL, the cultures were incubated for 60 minutes, metabolites were solubilized in acidic isopropanol, and absorbance was read at 570 nm.

In the next series the target is T2, human RNaseH1 (Homo sapiens, UniProt O60930).
T2 construct: made in house; host or cells: E. coli
T2 sequence (O60930 1-286): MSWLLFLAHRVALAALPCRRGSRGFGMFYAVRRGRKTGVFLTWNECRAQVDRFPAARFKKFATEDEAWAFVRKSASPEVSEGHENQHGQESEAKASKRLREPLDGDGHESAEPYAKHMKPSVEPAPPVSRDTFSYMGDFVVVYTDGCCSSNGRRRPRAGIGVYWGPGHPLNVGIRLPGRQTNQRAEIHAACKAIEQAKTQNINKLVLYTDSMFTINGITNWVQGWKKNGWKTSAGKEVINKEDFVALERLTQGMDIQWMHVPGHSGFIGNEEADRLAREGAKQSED
Kind of series: Oligonucleotide-directed RNA cleavage assay, human RNaseH1. In kind it is biochemical. The note with it: for IC50: Table 1, quantitative values. The source says:
RNaseH expression and purification.
Oligonucleotide-directed RNA cleavage assay.

The test system of another series is HSV-1. Put plainly: HSV-1 replication inhibition assay in Vero cells. As to conditions: read-out: HSV-1 suppression (log10 at 5 μM), class symbol. The series is classed as cell-based, herpes simplex virus 1.
Series [3] is described as follows: Lactate dehydrogenase (LDH) release cytotoxicity assay. The series is classed as cell-based. As to conditions: human, HepDES19 cells, read-out: Toxicity in HepDES19, LDH (CC50). The protocol:
(§2) To further evaluate potential cytotoxicity of these hits, the effect of the compounds was determined for the uptake of neutral red (NR) by the lysosomes and lactate dehydrogenase (LDH) release into the supernatant due to cell membrane permeability. […] Overall, the TI values in Table 3 and FIG. 4 indicate that cytotoxicity was not the cause of antiviral efficacy, although it may have contributed to the apparent efficacy for #84, 85, 90, and 91, which all have TI values below 5.

Series [4] can be described thus: Neutral red (NR) cytotoxicity assay. The note with it: human, HepDES19 cells, read-out: Toxicity in HepDES19, NR (CC50). In kind it is cell-based. On the procedure:
as §2

The target in series [5] is T1, HBV RNaseH. The note with it: for HBV RNaseH: Table 1, qualitative inhibition in biochemical assay; for Inhibition of HBV RNaseH, Oligonucleotide directed cleavage assay: Table 3, compounds at 100, 60 and 20 μM, compounds 1-91 and 138-140 previously reported (Cai et al., 2014); for inhibition of RNA cleavage by HBV RNaseH: compounds at 100, 60 and 20 μM.
Description: RNaseH expression and purification. […] The enriched extracts were dialyzed into 50 mM HEPES pH 7.3, 300 mM NaCl, 20% glycerol, and 5 mM DTT and stored in liquid nitrogen.
Oligonucleotide-directed RNA cleavage assay. […] This mixture was incubated with test compounds in 50 mM Tris pH 8.0, 190 mM NaCl, 5 mM MgCl2, 3.5 mM DTT, 0.05% NP40, 6% glycerol, and 1% DMSO at 42° C. for 90 minutes. Cleavage products were resolved by denaturing polyacrylamide gel electrophoresis, detected by autoradiography, and quantified using ImageJ. Non-specific background values were determined from the incorrect oligonucleotide negative control lane and subtracted from all experimental values. IC50 values were then calculated with GraphPad Prism using three-parameter log(inhibitor) vs. response non-linear curve fitting with the curve minimum set to zero to reflect background subtraction.
The HBV RNaseH inhibition activity of the 16 previously untested compounds was examined using an oligonucleotide-directed cleavage assay. Compounds were incubated with the HBV RNaseH, a ^32P-labeled RNA substrate plus a complementary DNA oligonucleotide and compounds at 100, 60, and 20 μM and the amount of the RNA cleavage products was measured following resolution on an acrylamide gel.
Briefly, a ^32P-labeled RNA was combined with a DNA oligonucleotide and the RNA:DNA substrate was incubated in the presence of the RNaseH and test compounds in 50 mM tris pH 8.0, 190 mM NaCl, 5 mM MgCl2, 3.5 mM DTT, 0.05% NP40, 6% glycerol, and 1% DMSO at 42° C. for 90 minutes. The products were resolved by gel electrophoresis and detected by audioradioagraphy.
The subject of another series is HBV replication. Kind of series: HBV replication inhibition assay in HepDES19 cells (strand-preferential q-PCR). The series is classed as cell-based, Hepatitis B virus. As to conditions: Hepatitis B virus.
For a further series, the system named is HIV replication. The note with it: literature values (Billamboz et al., 2011b; Suchaud et al., 2014); cited from earlier work.
The test system of another series is HBV infections. As to conditions: cited from earlier work.
Series [6] is described as follows: Stability in mouse liver microsomes. In kind it is in vitro ADME. (Liver microsomes are vesicles of endoplasmic reticulum, rich in cytochrome P450 enzymes.)
The mark [7] stands for this setting: Human alphaherpesvirus 1, 24 h, 5 μM, Vero cells.
[8] abbreviates: HepDES19, read-out: HBV replication inhibition (EC50, μm).
The mark [9] stands for this setting: HepDES19 cells, read-out: EC50, HBV replication.
Setting [10] is: Table 2, HepDES19 cells, read-out: EC50.

Where two headings read alike, the source gives them in different places.

T1 sequence (P03156 671-832): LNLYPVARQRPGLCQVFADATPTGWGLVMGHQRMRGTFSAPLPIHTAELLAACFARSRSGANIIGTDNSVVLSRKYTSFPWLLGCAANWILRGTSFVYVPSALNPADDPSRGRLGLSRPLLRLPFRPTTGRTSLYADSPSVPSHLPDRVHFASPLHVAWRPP

As for `O=C(Nc1ccc2c(c1)C(=O)N(O)C(=O)C2C(=O)NCc1ccc(F)cc1)c1ccccc1` (centres unmarked) [Compound 86], the “Inhibition of HBV RNaseH, Molecular Beacon cleavage assay” value at HBV RNaseH [1] is reported as “− (No inhibition detected at 500 μM)”. Moreover, the CC50 at 72 h in series [2] is 99 ± 2 µM; in [3] it was above 100 µM; in series [4], 52 ± 11 µM. In the series with HepDES19 cells, the “TI (therapeutic index, CC50(MTS)/EC50)” value worked out at 71. The compound further came in with a half-maximal cytotoxic concentration (CC50) in “MTT cytotoxicity assay” above 100 µM. This compound came in with an IC50 against human RNaseH1 of 4 µM. In the series with HSV-1 (setting [7]), the log reduction at 5 µM is below 1. For the same compound, the “HBV RNaseH” value on HBV RNaseH [5] was “+/−”. The “Inhibition of HBV RNaseH, Oligonucleotide directed cleavage assay” value on HBV RNaseH [5] is on record as “− (No inhibition detected at 100 μM)”. Further, the 50% effective concentration (EC50) in the series on HBV replication (setting [8]) is 1.4 ± 0.3 µM; with HBV replication (setting [9]), 1.4 µM; in the series on HBV replication (setting [10]), 1.4 µM; in the series with HIV replication, above 21 µM.

`COC(=O)C1C(=O)N(O)C(=O)c2ccccc21` (centres unmarked) [Compound 81]: on HBV RNaseH [1], the “inhibition in the molecular beacon assay” value is given as “inhibited” and the “Inhibition of HBV RNaseH, Molecular Beacon cleavage assay” value is “+ (Dose-dependent inhibition at ≤500 μM)”. This compound also came in with an IC50 at human RNaseH1 of 4.9 µM. Also, in the series on HSV-1 (Human alphaherpesvirus 1, Vero, 24 h), the log reduction at 5 µM was below 1. At HBV RNaseH [5], the “HBV RNaseH” value was “+/−”; the “Inhibition of HBV RNaseH, Oligonucleotide directed cleavage assay” value is recorded as “− (No inhibition detected at 100 μM)”; the “inhibition of RNA cleavage by HBV RNaseH” value is “negative”. In addition, the EC50 in the series on HBV replication (setting [8]) came to 4.4 ± 3 µM. The EC50 in the series on HBV replication (setting [9]) worked out at 4.4 µM. For the same compound, the EC50 in the series on HBV replication (setting [10]) worked out at 4 µM. Besides, the EC50 in the series with HIV replication is 13.4 µM.

As to Interferon α, in the series with HBV infections, the “patients with sustained clinical improvement” value is given as 20-30%.

Consider `C/C(=N\c1ccccc1NO)c1c(C)cc(=O)n(O)c1O` [Compound 208], for which the “inhibition in the molecular beacon assay” value at HBV RNaseH [1] is “inhibited”. In addition, the “Inhibition of HBV RNaseH, Molecular Beacon cleavage assay” value on HBV RNaseH [1] is given as “+ (Dose-dependent inhibition at ≤500 μM)”. Further, the figures for the CC50 at 72 h in [2], in [3] and in [4] were 15 ± 7 µM, 12 ± 0.1 µM and 13 ± 1 µM, respectively. Moreover, on human RNaseH1 (compounds at 100, 60 and 20 μM), the “inhibition of huRNaseH1” value is “did not inhibit the huRNaseH1 at 100 μM”. Moreover, the log reduction at 5 µM with HSV-1 (setting [7]) is below 1. Further, at HBV RNaseH [5], the “Inhibition of HBV RNaseH, Oligonucleotide directed cleavage assay” value is “+ (Dose-dependent inhibition at ≤100 μM)”. Moreover, the “inhibition of RNA cleavage by HBV RNaseH” value against HBV RNaseH [5] is “inhibited RNA cleavage by the HBV RNaseH”. In addition, the “stability in mouse liver microsomes” value in series [6] was “stable”. The EC50 in the series on HBV replication (HepDES19, read-out: EC50, HBV replication) was found to be 0.69 µM; in the series on HBV replication (setting [8]) it was 0.69 ± 0.2 µM.

One may read the CC50 as the concentration that lowers cell viability or growth by half. The IC50 is the point on the concentration scale where inhibition reaches its midpoint. Broadly, the EC50 is the concentration giving half of the maximal effect.
